Laboratory results as given in ChEMBL document CHEMBL3739409, “Bioactive ent-Pimarane and ent-Abietane Diterpenoids from the Whole Plants of Chloranthus henryi” (J Nat Prod, 2015).
Values after ≈ are worked out from the molar mass of the structure shown.

Experiments:
Candida albicans [1] = test: Antifungal activity against Candida albicans SC5314 assessed as inhibition of yeast to hyphae conversion after 4 hrs by microscopic analysis; type: functional, organism-based; conditions: SC5314, 4 h
Candida albicans [2] = test: Antifungal activity against Candida albicans SC5314 by broth microdilution method; type: functional

| Compound | IC50 (Candida albicans [1]) | MIC50 (Candida albicans [2]) |
| --- | --- | --- |
| CC(C)c1ccc2c(c1)C(=O)CC1C(C)(C)[C@@H](O)CC[C@]21C (stereo partly drawn) | 97.3 µM | 427 µM (≈ 128 µg/mL) |
| CO[C@@]1(C(C)C)C=C2C(=O)C[C@@H]3C(C)(C)[C@H](O)CC[C@@]3(C)[C@@H]2C[C@H]1O | 334 µM | 731 µM (≈ 256 µg/mL) |
| C=C[C@]1(C)C=C2[C@@H](CC1)[C@]1(C)CC[C@@H](O)C(C)(C)[C@H]1C[C@@H]2O | 399 µM |  |
| CC(C)c1ccc2c(c1)[C@H](O)CC1C(C)(C)[C@@H](O)CC[C@]21C (stereo partly drawn) | 739 µM |  |
| OC(Cn1cncn1)(Cn1cncn1)c1ccc(F)cc1F [FLUCONAZOLE] |  | 1.6 µM (≈ 0.49 µg/mL) |
| C=CCc1ccc(O)c(-c2cc(CC=C)ccc2O)c1 [MAGNOLOL] | 7.5 µM |  |
